One compound from patent US10028958B2, “Methods of treating cancer with a combination of selected MEK1/2 and AXL inhibitors” (Massachusetts Institute of Technology, priority 2014, dated 2018) can be followed below.

One experiment deals with AXL pY. In words: Short term p-AXL up-regulation (bead-based immunoassay). It is filed as cell-based. The note with it: 2 h; MDAMB231. The text has this: pTyr-RTK measurements used bead-based immunocapture with a pan-pTyr detection antibody (EMD Millipore, Billerica, Mass.). Unless otherwise stated, immunoassays followed manufacturer protocols. Bead-based immunoassays were routinely normalized according to the micro BCA protein assay (Pierce) or cell count (ViCell). ADAM17 (pThr^735) and ADAM10 western blot Abs were from Sigma. Anti-phospho Histone H3 (Ser10) for measuring mitotic index was from EMD Millipore, (Billerica, Mass.). GAPDH (glyceraldehyde-3-phosphate dehydrogenase) and α-actinin were used for Western blotting and purchased from Cell Signaling Technology (Danvers, Mass.). APP Ab was from Abcam (Cambridge, Mass.). Live-cell immunostaining was performed using R&D Systems (Minneapolis, Minn.) Abs. SiRNAs, including non-targeting control siRNA, were packaged as SMARTpool ON-TARGETplus and used with DharmaFECT4 (Thermo Scientific, Tewksbury, Mass.). For ADAM10/17 western blots, lysis was performed with 50 mM tris-HCl (pH 7.5), 10% glycerol, 150 mM NaCl, and 1% NP-40, with complete protease (Roche, Nutley, N.J.) and phosphatase (Boston BioProducts, Ashland, Mass.) inhibitors added immediately before use.

For experiment [1], the system named is AXL association with MET and HER2. Put plainly: RTK cross-linking and bead-based co-I.P. Format: cell-based. The settings on record: 2 h; MDAMB231. On the procedure: MDA-MB231 cells were plated at 90% confluency on three 10-cm plates for each condition, serum starved for 4 h the following day, and treated with inhibitor in serum-free media for 2 h. Cells were then cross-linked with 1 mM EGS for 30 min at 4° C., lysed. Receptor cross-linking was measured using a modified MET and HER2 Luminex Bioplex assay, as previously described (Meyer, A. S., Miller, M. A., Gertler, F. B., and Lauffenburger, D. A. (2013). The receptor AXL diversifies EGFR signaling and limits the response to EGFR-targeted inhibitors in triple-negative breast cancer cells. Sci Signal 6, ra66).

A further experiment deals with sheddase substrates. In words: Supernatant accumulation of sheddase substrates (ELISA, bead-based immunoassay). The settings on record: 24 h; multiple cancer types. (An ELISA detects its analyte on a solid surface through an enzyme-linked reagent.)
A further experiment concerns p-JNK. In words: Short term BB94-elicited downstream phosphosignaling (bead-based immunoassay). The settings on record: 2 h; MDAMB231. Format: cell-based.
For another experiment, the system named is mitotic index. Put plainly: Cell cycle analysis (mitotic index by FACS). It is filed as cell-based. As for the experimental part: Cells were trypsinized, rinsed in 4° C. PBS, fixed in 70% 4° C. ethanol overnight, rinsed, and permeabilized in 0.1% Triton-X-100. Cells were then blocked for 1 h in PBS+3% FBS, incubated with anti-phospho-Histone H3 (pSer^10) for 1 h, rinsed, incubated with Alexa647-conjugated 2° Ab, and again rinsed. Lastly, cells were finally incubated at 37° C. for 1 h with 40 μg/ml propidium iodide and 100 μg/ml RNaseA, and again rinsed. Mitotic index was calculated by interpreting DNA-content histograms as described previously (Watson, J. V., Chambers, S. H. & Smith, P. J. A pragmatic approach to the analysis of DNA histograms with a definable G1 peak. Cytometry 8, 1-8 (1987)) in Matlab (Mathworks, Natick, Mass.) and gating for G2/M phase cells with high p-Histone-H3 staining.
(A flow cytometer gives signals particle by particle.)

For experiment [2], the system named is OVCA-429 ovarian cancer cells. Put plainly: Loewe synergy of MEKi/AXLi cell count, with or without BB94. It is filed as cell-based. The settings on record: 72 h; addition of 10 uM BB94. As for the experimental part: (§1) Drugs were purchased from Selleck Chem (Houston, Tex.) and LC Labs (Woburn, Mass.). Cells were grown as described by manufacturers' guidelines. OVCA-429 were grown in RPMI+10% FBS. To calculate Loewe synergy, a computational model was used (Greco, W. R., et al., Pharmacol Rev., 47(2):331-85 (1995)) and the synergy term a was computationally inferred using Matlab (Mathworks; Natick, Mass.). Statistical significance was determined by leave-one-out jackknife error estimation (Efron, B. and Gong, G., Amer Stat.; 37(1):36-48 (1983)). For both MDAMB-231 and OVCA-429 synergy calculations, the modeling was fit to data from treatment at the MEKi concentrations of 7 μM, 2 μM, 0.7 μM, and 0.02 μM and R428 concentrations of 1.5 μM, 0.75 μM, 0.38 μM, and 0.19 μM. For cell growth assays, 5000 cells were plated per well in a 96-well plate, treated with drugs the following day, and counted at 72 h according to either a rezasurin assay (PrestoBlue; Life Technologies, Grand Island, N.Y.) using manufacturer's guidelines, or by flow cytometry following trypsinization and immediate analysis on an LSR-II (BD Biosciences, San Jose, Calif.).

In a further experiment the test system is MDAMB-231. Described as above. Format: cell-based. The note with it: 72 h; addition of 10 uM BB94. On the procedure:
as §1

Procedure for sheddase substrates: The following inhibitors were used in FIG. 1H, at the following concentrations: metalloproteinase inhibitor BB94 (10 μM; Tocris Bioscience), p38 inhibitor SB203580 (20 μM; Selleck Chem), MEK1/2 inhibitor PD0325901 (10 μM; LC Labs), Met/AXL inhibitor XL-880 (5 μM; Selleck Chem), MEK1/2 inhibitor U0126 (10 μM; Selleck Chem), MEK1/2 inhibitor AZD6244 (10 μM; Selleck Chem), Aurora kinase inhibitor VX-680 (10 μM; Selleck Chem), PI3K inhibitor LY294002 (10 μM; Selleck Chem), JNK1/2 inhibitor JNK-IN-8 (3 μM; courtesy Nathaniel Gray, Harvard Medical School), JNK inhibitor SP600125 (10 μM; LC Labs), EGFR inhibitor gefitinib (1 μM; LC Labs), EGFR inhibitor erlotinib (1 μM; LC Labs), JNK inhibitor TCS-6o (1 μM; Tocris Bioscience), Abl inhibitor imatinib (1 μM; LC Labs), EGFR/HER2 inhibitor lapatinib (1 μM; LC Labs), AXL inhibitor R428 (3 μM; Selleck Chem), Alk5 inhibitor ALX-270-448 (5 μM; Enzo life sciences), AXL/MET inhibitor MP470 (5 μM; Selleck Chem), myosin light chain kinase inhibitor ML7 (1 μM; Sigma), and glycogen synthase kinase 3b inhibitor SB216763 (10 μM; Selleck Chem) Inhibitor concentrations were chosen based roughly on exceeding previously published Ki and IC50 values. The ADAM-10 inhibitor pro-ADAM-10 was from Biozyme, Inc. (St. Joseph, Mo.) and was used at 4 μM.
AXL, MET, TNFR1, and EGF-ligand supernatant measurements were performed using duo-set ELISA kits (R&D Systems, Minneapolis, Minn.). Total RTK measurements for HER2 and HER4 were performed using bead-based immunoassays (EMD Millipore, Billerica, Mass.).
For quantification of supernatant protein levels, cell supernatant was collected at the indicated time-point, spun for 5 min at 300 g, and frozen at −80° C. for future use. Supernatants were routinely normalized to cell count, determined via trypsinization and ViCell (Beckman Coulter, Brea, Calif.), and volumes were kept consistent across treatments.
As shown in FIG. 3A-3B, MDA-MB231 cells were treated with siRNA as described above and were seeded in 96-well plates at equal 90% confluency. Media was changed at 48 h post-transfection, and 24 h later supernatant was collected and cells were analyzed by live-cell immunostaining. For proADAM10 treatment, cells were seeded in 96-well plates at 90% confluency, treated with inhibitor or buffer control the following day, and supernatant was collected 24 h later.

In the case of `CNC(=O)[C@H](Cc1ccccc1)NC(=O)[C@H](CC(C)C)[C@H](CSc1cccs1)C(=O)NO` [BB94], in the experiment on AXL pY, the “total AXL pY” value is given as “increases”. Moreover, the “AXL association with MET and HER2” value in experiment [1] is given as “increases”. Besides, the “supernatant RTK accumulation” value in the experiment on sheddase substrates was “reduced supernatant RTK accumulation”. For the same compound, in the experiment with p-JNK, the phosphosignaling entry is reported as “increases phosphosignaling in an AXL-dependent manner”. In addition, the mitotic index entry with mitotic index is given as “increases mitotic index”. The “Loewe synergy (interaction term α) of trametinib and R428” value in experiment [2] is on record as “reduced synergy”. In the experiment on MDAMB-231, the “Loewe synergy (interaction term α) of PD325901 and R428” value was “reduced synergy”.
